We go through seven compounds from patent US4906624A, “6-(((Substituted)pyridin-3-yl)alkyl)-and alkenyl)-tetrahydro-4-hydroxypyran-2-one inhibitors of cholesterol biosynthesis” (Warner-Lambert Company, priority 1988, dated 1990).

For the first assay, the system named is Cholesterol Synthesis. In words: AICS screen: inhibition of cholesterol synthesis in rats (plasma [14C]cholesterol after sodium [1-14C]-acetate). It counts as in vivo. To be noted: 1.0 mg/kg, single dose, oral gavage, male Sprague-Dawley rats fed 5% cholestyramine; acetate one hour after drug, blood after 50 minutes. As to the method: The ability of compounds of the present invention to inhibit the biosynthesis of cholesterol was also measured by a method (designated AICS screen) which utilizes the procedure described by A. W. Alberts et al, Proc. Natl. Acad. Sci., (1980), 77, pp 3957-3961.
In this method male Sprague-Dawley rats (200 g body weight) previously fed 5% cholestyramine for three days were randomly divided into groups (N=5/group) and given a single dose of vehicle (controls) or compound by an oral gavage at the indicated doses. One hour after drug dosing, all rats were injected intraperitoneally with sodium[1-^14 C]-acetate (18.75 μCi/rat in 0.2 ml saline). After 50 minutes, blood samples were taken, plasma obtained by centrifugation, and plasma [^14 C]cholesterol measured after saponification and extraction.
Turning to `CCCNC(=O)c1c(C(C)C)nc(C(C)C)c(/C=C/C2CC(O)CC(=O)O2)c1-c1ccc(F)cc1` (stereo not drawn) [Example 32, [2α,4α(E)]-4-(4-fluorophenyl)-2,6-bis(1-methylethyl)-n-propyl-5-[2-(tetrahydro-4-hydroxy-6-oxo-2H-pyran-2-yl)ethenyl]-3-pyridinecarboxamide], the “% Inhibition of Cholesterol Synthesis” value is -25%.

Still in this assay, the particulars now being: Rattus norvegicus, 50 min; 1.0 mg/kg, single dose, oral gavage, male Sprague-Dawley rats fed 5% cholestyramine; acetate one hour after drug, blood after 50 minutes.
`CC(C)c1nc(-c2ccccc2)cc(-c2ccc(F)cc2)c1/C=C/[C@@H]1C[C@@H](O)CC(=O)O1` (relative stereo) [Example 30, [4α,6β(E)]-6-[2-[4-(4-fluorophenyl)-2-(1-methylethyl)-6-phenyl-3-pyridinyl]ethenyl]tetrahydro-4-hydroxy-2H-pyran-2-one]: the change in vivo at 1 mg/kg was -64%.
The same measure, in the same setting: with `CCc1nc(CC)c(C(=O)OC)c(-c2ccc(F)cc2)c1/C=C/[C@@H]1C[C@@H](O)CC(=O)O1` (relative stereo) [Example 34, [2α,4β(E)]-2,6-diethyl-4-(4-fluorophenyl)-5-[2-(tetrahydro-4-hydroxy-6-oxo-2H-pyran-2-yl)ethenyl]-3-pyridinecarboxylic acid, methyl ester] the figure was -57%; with `CCc1nc(CC)c(CO)c(-c2ccc(F)cc2)c1/C=C/[C@@H]1C[C@@H](O)CC(=O)O1` (relative stereo) [Example 36], -68%.
With `COc1c(C)nc(C(C)C)c(/C=C/[C@@H]2C[C@@H](O)CC(=O)O2)c1-c1ccc(F)cc1` (relative stereo) [Example 38, [4α,6β(E)]-6-[2-[4-(4-fluorophenyl)-5-methoxy-6-methyl-2-(1-methylethyl)-3-pyridinyl]ethenyl]tetrahydro-4-hydroxy-2H-pyran-2-one], the change in vivo at 1 mg/kg was -67%.
Still for that read-out and setting: with `C=Cc1c(C)nc(C(C)C)c(/C=C/[C@@H]2C[C@@H](O)CC(=O)O2)c1-c1ccc(F)cc1` (relative stereo) [Example 40, [4α,6β(E)]-6-[2-[5-ethenyl-4-(4-fluorophenyl)-6-methyl-2-(1-methylethyl)-3-pyidinyl]ethenyl]tetrahydro-4-hydroxy-2H-pyran-2-one] the figure was -68%; with `Cc1cc(-c2ccc(F)cc2)c(/C=C/[C@@H]2C[C@@H](O)CC(=O)O2)c(C(C)C)[n+]1[O-]` (relative stereo) [Example 42, 4α,6β(E)-6-[2-[4-(4-fluorophenyl)-6-methyl-2-(1-methylethyl)-3-pyridinyl]ethenyl]tetrahydro-4-hydroxy-2H-pyran-2-one, N-oxide], -69%.
